The values below are quoted from earlier work in patent publication US20230117397A1, “PIRFENIDONE FOR CORONAVIRUS TREATMENT” (Excalibur Pharmaceuticals, Inc., priority 2020, published 2023).

For series [1] the following is noted: oral, healthy adults.
The test system of series [2] is IFN-γ. To be noted: pirfenidone added after cell stimulation with endotoxin.
In series [3] the test system is TNF-α. To be noted: once daily 50 mg/kg/day or 100 mg/kg/day; dose dependent.
For series [4] the following is noted: MALDI-FTICR MSI.
Assay in series [5]: not given
The source holds these as a separate data set.

Series [6] deals with IL-6. To be noted: once daily 50 mg/kg/day or 100 mg/kg/day; dose dependent.
Series [7] has as its system IL-10. To be noted: once daily 50 mg/kg/day or 100 mg/kg/day; dose dependent.
Series [8] has as its system IL-12. Conditions: pirfenidone pre-treatment before LPS.
The test system of series [9] is endotoxic shock. Conditions: for survival: pretreatment 15 minutes before LPS.
For series [10], the system named is IFN-γ. To be noted: pirfenidone pre-treatment before LPS.
Series [11] has as its system silicosis (intratracheal silica slurry).
Assay in series [12]: not given
The source holds these as a separate data set.

Series [13] deals with IL-10. To be noted: pirfenidone pre-treatment; by 3 hours.
The subject of series [14] is TNF-α. Conditions: pirfenidone added after cell stimulation with endotoxin.
Series [15] has as its system TNF-α. To be noted: pretreatment 5 minutes before LPS.
Series [16] relates to TNF-α.
The conditions of series [17]: major urinary metabolite of pirfenidone.

Read-outs that look alike come from different tables or passages of the source.

As for `Cc1ccc(=O)n(-c2ccccc2)c1` [pirfenidone, 5-methyl-1-phenyl-2-(1H)-pyridone], the terminal half-life entry in [1] is given as “approximately 2.5 hours”; in [12] (in vivo), “approximately 2 hours”. The “time to maximum levels in blood” value is 0.5 h in [1] (fasting) and 2 h in [1] (post food). Also, the half-life result (following from the clearance) is “less than 2 hours”. Besides, the drug clearance entry (oral administration) is “approximately 30 ml/min/kg”. For the same compound, the “levels of secreted IFN-γ protein” value in series [2] is “significantly decrease”. In addition, the “steady state levels of IFN-γ RNA” value in [2] is given as “did not change”. Also, the TNF-α result in series [3] is “significant reduction”. Besides, in [4] (kidney tissue), the “T1/2 in kidney tissue” value was 49 min. Besides, the “T1/2 in liver tissue” value in series [4] (liver tissue) is 46 min. Also, in series [4] (lung tissue), the “T1/2 in lung tissue” value is 67 min. For the same compound, in series [5] (10% or more greater than placebo), the “most common side effects” value is “nausea, dyspepsia and rash”. The “AST/ALT elevation, incidence” value in [5] (in vivo) is given as less than 3%. Besides, in series [5] (very rarely), the “bilirubin elevation, incidence” value is reported as 0.1%. For the same compound, the IL-6 entry in [6] is on record as “significant reduction”. Further, the IL-10 entry in series [7] is listed as “significant reduction”. Further, the IL-12 suppressed in series [8] is given as 84%. For the same compound, the survival in series [9] (100 mg/kg, 4/8) is listed as 50%; in series [9] (500 mg/kg, 8/8) it was 100%. For the same compound, the values for the protection from death result in series [9] (pretreatment 3 hours before LPS) and in series [9] (pretreatment 6 hours or more before LPS) were “partial protection” and “none”, respectively. Besides, the “survived (survivors/animals)” value in [9] (single oral dose 1 hour after LPS) is 5/5; in series [9] (single oral dose 3 hours after LPS) it was 4/5; in [9] (single oral dose 5 hours after LPS) it was 1/5. In [10], the IFN-γ inhibited is listed as 91%. In addition, the “dose response difference in inflammation and fibrosis” value in [11] (between the 50 mg/kg/day and 100 mg/kg/day treatment groups) is given as “approximately 15%”. Also, the “inflammation and resulting fibrosis” value in series [11] (once daily 50 mg/kg/day or 100 mg/kg/day) is given as “significantly decreased”. Also, the “time to maximum serum concentration” value in series [12] (after dosing) was “within an hour”. The IL-10 expression enhanced entry in series [13] is on record as “approximately 27 fold”. Besides, the “levels of secreted TNF-α protein” value in series [14] is “significantly decrease”. For the same compound, the “steady state levels of TNF-α RNA” value in series [14] is “did not change”. The TNF-α levels suppressed in series [15] is given as 97%. Also, the TNF-α expression entry in series [16] (200 mg/kg immediately after LPS) is “inhibited”. Moreover, in series [16] (200 mg/kg, 30 or 60 minutes before or after LPS), the TNF-α expression inhibited entry was “not”.
Turning to `O=C(O)c1ccc(=O)n(-c2ccccc2)c1` [5-carboxy-pirfenidone], in series [17], the biological activity entry is “limited to no biological activity”.
